Experimental data published in patent US10703746B2, “Mutant IDH1 inhibitors useful for treating cancer” (THE UNITED STATES OF AMERICA, AS REPRESENTED BY THE …, priority 2014, dated 2020).

Legend:
[1] = biological target: IDH1 R132C (Homo sapiens, UniProt O75874, R132C); assay: IDH1 R132C enzymatic assay (NADPH depletion coupled to diaphorase/resazurin); format: biochemical
Protocol: (§1) Assays were conducted in a 1536-well black solid-bottom plate with a final assay volume of 9 μL.
For IDH1 R132C, 3 μL of enzyme (0.00032 mg/mL IDH1 […], 10% glycerol, 50 mM potassium phosphate pH 6.5, 5 mM MgCl2, 0.03% BSA) were added to the plate, followed by the addition of 23 nL of test compound in DMSO. The plate was lidded and incubated at room temperature for 30 minutes at which time 3 μL of substrate were added (0.012 mM NADPH, 0.6 mM α-KG, 10% glycerol, 50 mM potassium phosphate pH 6.5, 5 mM MgCl2, 0.03% BSA). […]

[2] = biological target: IDH1 R132H (Homo sapiens, UniProt O75874, R132H); assay: IDH1 R132H enzymatic assay (NADPH depletion coupled to diaphorase/resazurin); format: biochemical
Protocol: as §1
Specifically, for IDH1 R132H, 3 μL of enzyme (4 mM β-ME, 0.0005 mg/mL IDH1 R132H, 150 mM NaCl, 20 mM Tris pH 7.5, 10 mM MgCl2, 0.05% BSA) were added to the plate, followed by the addition of 23 nL of test compound in DMSO. The plate was lidded and incubated at room temperature for 30 minutes at which time 3 μL of substrate were added (0.016 mM NADPH, 2 mM α-KG, 150 mM NaCl, 20 mM Tris pH 7.5, 10 mM MgCl2, 0.05% BSA). This reaction was incubated at room-temperature for 60 minutes at which time the detection mix was added (0.06 mg/mL diaphorase, 0.036 mM resazurin, 150 mM NaCl, 20 mM Tris pH 7.5, 10 mM MgCl2, 0.05% BSA). […]

[3] = enzymatic inhibition, IDH1 R132C
[4] = enzymatic inhibition, IDH1 R132H
[5] = IDH1 R132C enzymatic inhibition, IC50 class
[6] = IDH1 R132H enzymatic inhibition, IC50 class

Sequence of IDH1 R132C (O75874 whole entry R132C): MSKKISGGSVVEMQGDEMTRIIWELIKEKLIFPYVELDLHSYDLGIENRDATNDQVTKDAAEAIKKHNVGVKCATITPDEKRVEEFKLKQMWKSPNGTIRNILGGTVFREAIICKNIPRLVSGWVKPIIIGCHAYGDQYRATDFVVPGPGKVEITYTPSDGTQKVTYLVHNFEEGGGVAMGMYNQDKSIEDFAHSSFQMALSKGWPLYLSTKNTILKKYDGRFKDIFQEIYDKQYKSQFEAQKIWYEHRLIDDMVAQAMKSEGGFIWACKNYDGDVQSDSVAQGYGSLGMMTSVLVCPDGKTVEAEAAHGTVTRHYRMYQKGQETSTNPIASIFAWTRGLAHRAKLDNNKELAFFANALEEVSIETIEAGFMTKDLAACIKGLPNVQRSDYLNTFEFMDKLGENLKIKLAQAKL
Sequence of IDH1 R132H (O75874 whole entry R132H): as the sequence (O75874 whole entry R132C) above, with C132H counted along it

| Structure (SMILES) | IC50 [1, 3] [nM] | IC50 [2, 4] [nM] | IC50 [1, 5] [nM] | IC50 [2, 6] [nM] |
| --- | --- | --- | --- | --- |
| COc1cccc(CN2CCN(C)CC2)c1-n1c2c(cc(-c3nc(-c4ccc(Cl)cc4)cs3)c1=O)C(=O)CCC2 [Compound 411] | 5000 to 20000 | 5000 to 20000 | – | – |
| COc1ccc(OC)c(-n2c3c(cc(-c4nnn(-c5ccc(Cl)cc5)n4)c2=O)C(=O)CC(C)(C)C3)c1 [Compound 287] | – | – | 1000 to 5000 | > 20000 |
| CCc1cccc(CC)c1-n1c(CC(C)C)c(C(=O)NC(CC)CO)cc(-c2nc(-c3ccc(Cl)cc3)cs2)c1=O (stereo not shown) [Compound 196] | – | – | < 300 | 1000 to 5000 |
| CCc1cccc(CC)c1-n1c(C)c(C(=O)NCCO)cc(-c2nc(-c3ccc(Cl)cc3)cs2)c1=O [Compound 153] | – | – | 1000 to 5000 | 300 to 1000 |
| Cc1cccc(O)c1-n1c2c(cc(-c3nc(-c4ccc(Cl)cc4)cs3)c1=O)C(=O)CC(C)(C)C2 [Compound 246] | – | – | 1000 to 5000 | 1000 to 5000 |
| CCc1ccc(F)cc1-n1c(C=C(C)C)c(C(=O)N2CCNCC2)cc(-c2nc(-c3ccc(C(F)(F)F)cc3)cs2)c1=O [Compound 583] | < 300 | < 300 | – | – |
| COc1ccc(-n2c3c(cc(-c4nc(-c5ccc(Cl)cc5)cs4)c2=O)C(=O)CC(C)(C)C3)c(OC)c1 [Compound 597] | > 20000 | > 20000 | – | – |
| Cc1ccccc1-n1c2c(cc(-c3nc(-c4ccc(Cl)cc4)cs3)c1=O)C(=O)CC(C)(C)C2 [Compound 22] | – | – | 300 to 1000 | 1000 to 5000 |
| CC(C)=Cc1c(C(=O)N2CCNCC2)cc(-c2nc(-c3ccc(Cl)cc3)cs2)c(=O)n1-c1ccccc1 [Compound 341] | – | – | 1000 to 5000 | 300 to 1000 |
| COc1ccc(OC)c(-n2c3c(cc(-n4cc(-c5ccccc5)cn4)c2=O)C(=O)CC(C)(C)C3)c1 [Compound 120] | – | – | > 20000 | > 20000 |
| CCc1cccc(CC)c1-n1c(C(C)C)c(C(=O)N2CCNC(=O)C2)cc(-c2nc(-c3ccc(Cl)cc3)cs2)c1=O [Compound 168] | – | – | 300 to 1000 | 300 to 1000 |
| COc1ncc(F)cc1-n1c(C=C(C)C)c(C(=O)N2CCNCC2)cc(-c2nc(-c3ccc(Cl)cc3)cs2)c1=O [Compound 361] | – | – | < 300 | < 300 |
| CCc1cccc(CC)c1-n1c(C(C)(C)F)c(C(=O)N2CCNCC2)cc(-c2nc(-c3ccc(Cl)cc3)cs2)c1=O [Compound 664] | – | – | 300 to 1000 | 300 to 1000 |
| CCc1cccc(CC)c1-n1c(C=C(C)C)c(C(=O)N2CCNCC2)cc(-c2ccn(-c3ccc(Cl)cc3)n2)c1=O [Compound 349] | – | – | < 300 | < 300 |
| CCc1cccc(CC)c1-n1c(CC(C)C)c(C(=O)N2CCNC(C)(CO)C2)cc(-c2nc(-c3ccc(Cl)cc3)cs2)c1=O (stereo not shown) [Compound 273] | – | – | < 300 | 300 to 1000 |
| COc1ccc(OC)c(-n2cccc(-c3nc(-c4ccc(Cl)cc4)cs3)c2=O)c1 [Compound 78] | – | – | > 20000 | > 20000 |
| COc1ccc(C)cc1-n1c(C=C(C)C)c(C(=O)N2CCNCC2)cc(-c2nc(-c3ccc(Cl)cc3)cs2)c1=O [Compound 438] | < 300 | < 300 | – | – |
| CCc1cccc(CC)c1-n1c(CC(C)C)c(C(=O)N2CCNCC2)cc(-c2cccc(-c3ccc(Cl)cc3)n2)c1=O [Compound 310] | – | – | 1000 to 5000 | 1000 to 5000 |
| CCc1cccc(CC)c1-n1c(C)c(C(=O)N2CCN[C@H](CO)C2)cc(-c2nc(-c3ccc(Cl)cc3)cs2)c1=O [Compound 16] | – | – | 300 to 1000 | 1000 to 5000 |
| CCc1cccc(CC)c1-n1c2c(cc(-c3nc(-c4ccccc4C(F)(F)F)cs3)c1=O)C(=O)CC(C)(C)C2 [Compound 230] | – | – | 1000 to 5000 | 5000 to 20000 |
| CCc1cccc(CC)c1-n1c(C)c(C(=O)N2CCN(C)CC2)cc(-c2nc(-c3ccc(Cl)cc3)cs2)c1=O [Compound 53] | – | – | 300 to 1000 | 1000 to 5000 |
| COc1ncccc1-n1c(C=C(C)C)c(C(=O)N2CCNCC2)cc(-c2nc(-c3ccc(Cl)cc3)cs2)c1=O [Compound 614] | < 300 | < 300 | – | – |
| Cc1cc(-n2c3c(cc(-c4nc(-c5ccc(Cl)cc5)cs4)c2=O)C(=O)CC(C)(C)C3)n(C)n1 [Compound 72] | – | – | 1000 to 5000 | 1000 to 5000 |
| COc1ccc(C(F)(F)F)cc1-n1c(C=C(C)C)c(C(=O)N2CCNCC2)cc(-c2nc(-c3ccc(Cl)cc3)cs2)c1=O [Compound 383] | – | – | 300 to 1000 | 300 to 1000 |
| CCOc1cccc(OCC)c1-n1c2c(cc(-c3nc(-c4ccc(Cl)cc4)cs3)c1=O)C(=O)CC(C)(C)C2 [Compound 609] | 300 to 1000 | 300 to 1000 | – | – |

| Structure (SMILES) | IC50 [1, 3] [nM] | IC50 [2, 4] [nM] | IC50 [1, 5] [nM] | IC50 [2, 6] [nM] |
| --- | --- | --- | --- | --- |
| CCOc1ccc(F)cc1-n1c(C=C(C)C)c(C(=O)N2CCNCC2)cc(-c2nc(-c3ccc(C(F)(F)F)cc3)cs2)c1=O [Compound 329] | – | – | < 300 | < 300 |
| CCc1cccc(C)c1-n1c2c(cc(-c3nc(-c4ccccc4)cs3)c1=O)C(=O)CCC2 [Compound 543] | 1000 to 5000 | 5000 to 20000 | – | – |
| CCOc1cccc(Cl)c1-n1c(C=C(C)C)c(C(=O)N2CCNCC2)cc(-c2nc(-c3ccc(Cl)cc3)cs2)c1=O [Compound 374] | – | – | < 300 | < 300 |
| CC1(C)CC(=O)c2cc(-c3nc(-c4ccc(F)cc4)cs3)c(=O)n(-c3ccccc3C(F)(F)F)c2C1 [Compound 30] | – | – | 300 to 1000 | 300 to 1000 |
| CC1(C)CC(=O)c2cc(-c3nc(-c4ccc(Cl)cc4)cs3)c(=O)n(-c3cc(C(F)(F)F)ccc3N3CCOCC3)c2C1 [Compound 92] | – | – | 1000 to 5000 | 1000 to 5000 |
| COc1ccc(F)cc1-n1c(C=C(C)C)c(C(=O)N2CCNCC2)cc(-c2ccn(-c3ccc(C(F)(F)F)cc3)n2)c1=O [Compound 532] | 1000 to 5000 | 300 to 1000 | – | – |
| CCc1cccc(CC)c1-n1c(CC(C)C)c(C(=O)N2CCNCC2)cc(-c2nc(-c3ccc(C(N)=O)cc3)c(C)s2)c1=O [Compound 307] | – | – | 5000 to 20000 | 5000 to 20000 |
| O=C1CCCc2c1cc(-c1nc(-c3ccc(Cl)cc3)cs1)c(=O)n2-c1ccncc1 [Compound 368] | – | – | > 20000 | > 20000 |
| CCc1cccc(CC)c1-n1c2c(cc(-c3nc(C4=CCN(C)CC4)c(C)s3)c1=O)C(=O)CC(C)(C)C2 [Compound 208] | – | – | 5000 to 20000 | > 20000 |
| CC1(C)CC(=O)c2cc(-c3nc(-c4ccc(Cl)cc4)cs3)c(=O)n(-c3ccccc3-c3ccccc3)c2C1 [Compound 295] | – | – | 300 to 1000 | 1000 to 5000 |
| CCc1cccc(CC)c1-n1c(C=C(C)C)c(C(=O)N2CCNC(CO)C2)cc(-c2nc(-c3ccc(Cl)cc3)cs2)c1=O (stereo not shown) [Compound 478] | < 300 | < 300 | – | – |
| CCc1cccc(CC)c1-n1c(CC(C)C)c(C(=O)N2CCNC(c3ccccc3)C2)cc(-c2nc(-c3ccc(Cl)cc3)cs2)c1=O (stereo not shown) [Compound 202] | – | – | < 300 | 300 to 1000 |
| O=C1CCCc2c1cc(-c1nc(-c3ccc(Cl)cc3)cs1)c(=O)n2-c1ccccn1 [Compound 350] | – | – | > 20000 | > 20000 |
| COc1cccc(F)c1-n1c(C=C(C)C)c(C(=O)N2CCNCC2)cc(-c2nc(-c3ccc(Cl)cc3)cs2)c1=O [Compound 556] | < 300 | < 300 | – | – |
| CNc1ccccc1-n1c2c(cc(-c3nc(-c4ccc(Cl)cc4)cs3)c1=O)C(=O)CC(C)(C)C2 [Compound 42] | – | – | 1000 to 5000 | 1000 to 5000 |
| COc1ccc(OC)c(-n2c3c(cc(-n4cc(-c5ccccc5)nn4)c2=O)C(=O)CC(C)(C)C3)c1 [Compound 261] | – | – | 5000 to 20000 | 5000 to 20000 |
| CCc1cccc(CC)c1-n1c2c(cc(-c3nc(C4=CCN(C(=O)OC(C)(C)C)CC4)c(C)s3)c1=O)C(=O)CC(C)(C)C2 [Compound 197] | – | – | 5000 to 20000 | 1000 to 5000 |
| COc1ccc(OC)c(-n2c3c(cc(-c4ccn(-c5ccccc5)n4)c2=O)C(=O)CC(C)(C)C3)c1 [Compound 158] | – | – | 1000 to 5000 | 1000 to 5000 |
| CCOc1ccc(F)cc1-n1c(C=C(C)C)c(C(=O)N2CCNCC2)cc(-c2nc(-c3ccc(C(F)(F)F)nc3)cs2)c1=O [Compound 477] | 300 to 1000 | < 300 | – | – |
| COc1ccc(-c2csc(-c3cc4c(n(-c5ccccc5C(F)(F)F)c3=O)CC(C)(C)CC4=O)n2)cc1 [Compound 204] | – | – | 300 to 1000 | 1000 to 5000 |
| CCCc1c(C(=O)N2CCNCC2)cc(-c2nc(-c3ccc(Cl)cc3)cs2)c(=O)n1-c1c(CC)cccc1CC [Compound 473] | < 300 | < 300 | – | – |
| CCc1cc(C)cc(CC)c1-n1c2c(cc(-c3nc(-c4ccc(Cl)cc4)cs3)c1=O)C(=O)CCC2 [Compound 531] | 1000 to 5000 | 5000 to 20000 | – | – |
| CCc1cccc(CC)c1-n1c(CC(C)C)c(C(=O)N2CCNCC2(C)C)cc(-c2nc(-c3ccc(Cl)cc3)cs2)c1=O [Compound 274] | – | – | < 300 | 300 to 1000 |
| CC(C)=Cc1c(C(=O)N2CCNCC2)cc(-c2nc(-c3ccc(Cl)cc3)cs2)c(=O)n1-c1ccccc1C [Compound 437] | 300 to 1000 | < 300 | – | – |
| CCOc1ccc(-c2csc(-c3cc(C(=O)N4CCNCC4)c(C=C(C)C)n(-c4c(CC)cccc4CC)c3=O)n2)cc1 [Compound 598] | < 300 | < 300 | – | – |
